According to publication PMC10620772, “Design, synthesis, and biological evaluation of new pyrimidine-5-carbonitrile derivatives as novel anti-cancer, dual EGFR^WT/COX-2 inhibitors with docking studies” (RSC Advances, 2023):

Tests used:
Experiment in all cases: NCI60 antitumor screening
Assay type in all cases: cell-based, human
M14 = settings: Homo sapiens; 10 μM single dose; M14 (melanoma); read-out: growth inhibition percent (GI%)
MDA-MB-468 = settings: Homo sapiens; 10 μM single dose; MDA-MB-468 (breast cancer); read-out: growth inhibition percent (GI%)
SK-MEL-5 = settings: Homo sapiens; 10 μM single dose; SK-MEL-5 (melanoma); read-out: growth inhibition percent (GI%)
UACC-62 = settings: Homo sapiens; 10 μM single dose; UACC-62 (melanoma); read-out: growth inhibition percent (GI%)
SF-268 = settings: Homo sapiens; 10 μM single dose; SF-268 (CNS cancer); read-out: growth inhibition percent (GI%)
SNB-75 = settings: for inhibition at 10 µM: Homo sapiens, 10 μM single dose, SNB-75 (CNS cancer), read-out: growth inhibition percent (GI%)
MOLT-4 = settings: Homo sapiens; 10 μM single dose; MOLT-4 (leukaemia); read-out: growth inhibition percent (GI%)
UACC-257 = settings: Homo sapiens; 10 μM single dose; UACC-257 (melanoma); read-out: growth inhibition percent (GI%)
SNB-19 = settings: Homo sapiens; 10 μM single dose; SNB-19 (CNS cancer); read-out: growth inhibition percent (GI%)
NCI-H226 = settings: for inhibition at 10 µM: Homo sapiens, 10 μM single dose, NCI-H226 (non-small cell lung cancer), read-out: growth inhibition percent (GI%)
PC-3 = settings: Homo sapiens; 10 μM single dose; PC-3 (prostate cancer); read-out: growth inhibition percent (GI%)
HL-60(TB) = settings: Homo sapiens; 10 μM single dose; HL-60(TB) (leukaemia); read-out: growth inhibition percent (GI%)
SN12C = settings: Homo sapiens; 10 μM single dose; SN12C (renal cancer); read-out: growth inhibition percent (GI%)
DU-145 = settings: Homo sapiens, DU-145; read-out: growth inhibition percent (GI%)
CAKI-1 = settings: Homo sapiens; 10 μM single dose; CAKI-1 (renal cancer); read-out: growth inhibition percent (GI%)
HCT-15 = settings: Homo sapiens; 10 μM single dose; HCT-15 (colon cancer); read-out: growth inhibition percent (GI%)
ACHN = settings: Homo sapiens; 10 μM single dose; ACHN (renal cancer); read-out: growth inhibition percent (GI%)
KM12 = settings: Homo sapiens; 10 μM single dose; KM12 (colon cancer); read-out: growth inhibition percent (GI%)
MCF7 = settings: Homo sapiens; 10 μM single dose; MCF7 (breast cancer); read-out: growth inhibition percent (GI%)
NCI-H522 = settings: Homo sapiens; 10 μM single dose; NCI-H522 (non-small cell lung cancer); read-out: growth inhibition percent (GI%)
A549/ATCC = settings: Homo sapiens; 10 μM single dose; A549/ATCC (non-small cell lung cancer); read-out: growth inhibition percent (GI%)
RXF 393 = settings: for inhibition at 10 µM: Homo sapiens, 10 μM single dose, RXF 393 (renal cancer), read-out: growth inhibition percent (GI%)
RPMI-8226 = settings: Homo sapiens; 10 μM single dose; RPMI-8226 (leukaemia); read-out: growth inhibition percent (GI%)
SF-295 = settings: Homo sapiens; 10 μM single dose; SF-295 (CNS cancer); read-out: growth inhibition percent (GI%)
OVCAR-5 = settings: Homo sapiens; 10 μM single dose; OVCAR-5 (ovarian cancer); read-out: growth inhibition percent (GI%)
IGROV1 = settings: Homo sapiens, IGROV-1; 10 μM single dose; IGROV1 (ovarian cancer); read-out: growth inhibition percent (GI%)
HOP-92 = settings: Homo sapiens; 10 μM single dose; HOP-92 (non-small cell lung cancer); read-out: growth inhibition percent (GI%)
NCI-H23 = settings: Homo sapiens; 10 μM single dose; NCI-H23 (non-small cell lung cancer); read-out: growth inhibition percent (GI%)
786–0 = settings: for inhibition at 10 µM: Homo sapiens, 10 μM single dose, 786–0 (renal cancer), read-out: growth inhibition percent (GI%)
SK-MEL-2 = settings: Homo sapiens; 10 μM single dose; SK-MEL-2 (melanoma); read-out: growth inhibition percent (GI%)
OVCAR-3 = settings: Homo sapiens; 10 μM single dose; OVCAR-3 (ovarian cancer); read-out: growth inhibition percent (GI%)
UO-31 = settings: Homo sapiens; 10 μM single dose; UO-31 (renal cancer); read-out: growth inhibition percent (GI%)
SK-OV-3 = settings: Homo sapiens; 10 μM single dose; SK-OV-3 (ovarian cancer); read-out: growth inhibition percent (GI%)
HT29 = settings: Homo sapiens, HT-29; 10 μM single dose; HT29 (colon cancer); read-out: growth inhibition percent (GI%)
HCC-2998 = settings: Homo sapiens; 10 μM single dose; HCC-2998 (colon cancer); read-out: growth inhibition percent (GI%)
BT-549 = settings: Homo sapiens; 10 μM single dose; BT-549 (breast cancer); read-out: growth inhibition percent (GI%)
OVCAR-8 = settings: Homo sapiens; 10 μM single dose; OVCAR-8 (ovarian cancer); read-out: growth inhibition percent (GI%)
CCRF-CEM = settings: Homo sapiens; 10 μM single dose; CCRF-CEM (leukaemia); read-out: growth inhibition percent (GI%)
TK-10 = settings: Homo sapiens; 10 μM single dose; TK-10 (renal cancer); read-out: growth inhibition percent (GI%)

Compound: CN1CCN(c2nc(SCc3ccc(F)cc3)nc(-c3ccc(F)cc3)c2C#N)CC1 [4j, 2-((4-Fluorobenzyl)thio)-4-(4-fluorophenyl)-6-(4-methylpiperazin-1-yl)pyrimidine-5-carbonitrile]
- inhibition at 10 µM (M14): 10.4%
- inhibition at 10 µM (MDA-MB-468): 23.6%
- inhibition at 10 µM (SK-MEL-5): < 10%
- inhibition at 10 µM (UACC-62): 22.5%
- inhibition at 10 µM (SF-268): 15.8%
- GI% (SNB-75; 10 μM one-dose, Table 1): 74.91%
- inhibition at 10 µM (SNB-75): 74.9%
- inhibition at 10 µM (MOLT-4): < 10%
- inhibition at 10 µM (UACC-257): < 10%
- inhibition at 10 µM (SNB-19): 40.3%
- GI% (NCI-H226; 10 μM one-dose, Table 1): — (GI value > 70%)
- inhibition at 10 µM (NCI-H226): 37.8%
- inhibition at 10 µM (PC-3): 32.3%
- inhibition at 10 µM (HL-60(TB)): < 10%
- inhibition at 10 µM (SN12C): 20.5%
- inhibition at 10 µM (DU-145): < 10%
- inhibition at 10 µM (CAKI-1): 57.5%
- inhibition at 10 µM (HCT-15): < 10%
- inhibition at 10 µM (ACHN): 39.1%
- inhibition at 10 µM (KM12): < 10%
- inhibition at 10 µM (MCF7): 14.8%
- inhibition at 10 µM (NCI-H522): 23.6%
- inhibition at 10 µM (A549/ATCC): 27.7%
- GI% (RXF 393; 10 μM one-dose, Table 1): 80.61%
- inhibition at 10 µM (RXF 393): 80.6%
- inhibition at 10 µM (RPMI-8226): 15%
- inhibition at 10 µM (SF-295): 56.8%
- inhibition at 10 µM (OVCAR-5): 17.4%
- inhibition at 10 µM (IGROV1): 16.9%
- inhibition at 10 µM (HOP-92): 66.2%
- inhibition at 10 µM (NCI-H23): 22.2%
- GI% (786–0; 10 μM one-dose, Table 1): — (GI value > 70%)
- inhibition at 10 µM (786–0): 67.1%
- inhibition at 10 µM (SK-MEL-2): < 10%
- inhibition at 10 µM (OVCAR-3): 16.1%
- inhibition at 10 µM (UO-31): 30.1%
- inhibition at 10 µM (SK-OV-3): 55.5%
- inhibition at 10 µM (HT29): < 10%
- inhibition at 10 µM (HCC-2998): < 10%
- inhibition at 10 µM (BT-549): 32%
- inhibition at 10 µM (OVCAR-8): 32%
- inhibition at 10 µM (CCRF-CEM): < 10%
- inhibition at 10 µM (TK-10): 15%

Compound: CN1CCN(c2nc(SCc3ccc([N+](=O)[O-])cc3)nc(-c3ccc(F)cc3)c2C#N)CC1 [4k, 4-(4-Fluorophenyl)-6-(4-methylpiperazin-1-yl)-2-((4-nitrobenzyl)thio)pyrimidine-5-carbonitrile]
- inhibition at 10 µM (M14): < 10%
- inhibition at 10 µM (MDA-MB-468): 12.4%
- inhibition at 10 µM (SK-MEL-5): 16.4%
- inhibition at 10 µM (UACC-62): 19.8%
- inhibition at 10 µM (SF-268): < 10%
- inhibition at 10 µM (SNB-75): 25.7%
- inhibition at 10 µM (MOLT-4): 17.6%
- inhibition at 10 µM (UACC-257): < 10%
- inhibition at 10 µM (SNB-19): 29.6%
- inhibition at 10 µM (NCI-H226): < 10%
- inhibition at 10 µM (PC-3): 25.9%
- inhibition at 10 µM (HL-60(TB)): < 10%
- inhibition at 10 µM (SN12C): 15.8%
- inhibition at 10 µM (DU-145): < 10%
- inhibition at 10 µM (CAKI-1): 34.8%
- inhibition at 10 µM (HCT-15): 15.7%
- inhibition at 10 µM (ACHN): 31.5%
- inhibition at 10 µM (KM12): < 10%
- inhibition at 10 µM (MCF7): 17.6%
- inhibition at 10 µM (NCI-H522): 21.3%
- inhibition at 10 µM (A549/ATCC): 18.7%
- inhibition at 10 µM (RXF 393): 68.5%
- inhibition at 10 µM (RPMI-8226): 17.8%
- inhibition at 10 µM (SF-295): 29.3%
- inhibition at 10 µM (OVCAR-5): 16.8%
- inhibition at 10 µM (IGROV1): < 10%
- inhibition at 10 µM (HOP-92): 47%
- inhibition at 10 µM (NCI-H23): 19.7%
- inhibition at 10 µM (786–0): 26.4%
- inhibition at 10 µM (SK-MEL-2): < 10%
- inhibition at 10 µM (OVCAR-3): < 10%
- inhibition at 10 µM (UO-31): 40%
- inhibition at 10 µM (SK-OV-3): 20.9%
- inhibition at 10 µM (HT29): < 10%
- inhibition at 10 µM (HCC-2998): < 10%
- inhibition at 10 µM (BT-549): 46.5%
- inhibition at 10 µM (OVCAR-8): 11.7%
- inhibition at 10 µM (CCRF-CEM): 17.5%
- inhibition at 10 µM (TK-10): < 10%

Compound: Cc1ccc(CSc2nc(-c3ccc(F)cc3)c(C#N)c(N3CCN(C)CC3)n2)cc1 [4l, 4-(4-Fluorophenyl)-2-((4-methylbenzyl)thio)-6-(4-methylpiperazin-1-yl) pyrimidine-5-carbonitrile]
- inhibition at 10 µM (M14): < 10%
- inhibition at 10 µM (MDA-MB-468): < 10%
- inhibition at 10 µM (SK-MEL-5): < 10%
- inhibition at 10 µM (UACC-62): 13%
- inhibition at 10 µM (SF-268): < 10%
- inhibition at 10 µM (SNB-75): 35.6%
- inhibition at 10 µM (MOLT-4): 10.5%
- inhibition at 10 µM (UACC-257): < 10%
- inhibition at 10 µM (SNB-19): 14.3%
- inhibition at 10 µM (NCI-H226): < 10%
- inhibition at 10 µM (PC-3): 24.2%
- inhibition at 10 µM (HL-60(TB)): 12.2%
- inhibition at 10 µM (SN12C): 11.9%
- inhibition at 10 µM (DU-145): < 10%
- inhibition at 10 µM (CAKI-1): 36.9%
- inhibition at 10 µM (HCT-15): 10.3%
- inhibition at 10 µM (ACHN): 29.9%
- inhibition at 10 µM (KM12): < 10%
- inhibition at 10 µM (MCF7): 12.8%
- inhibition at 10 µM (NCI-H522): 33.4%
- inhibition at 10 µM (A549/ATCC): 13.1%
- inhibition at 10 µM (RXF 393): 42.4%
- inhibition at 10 µM (RPMI-8226): 15.5%
- inhibition at 10 µM (SF-295): 17.6%
- inhibition at 10 µM (OVCAR-5): < 10%
- inhibition at 10 µM (IGROV1): < 10%
- inhibition at 10 µM (HOP-92): 39.3%
- inhibition at 10 µM (NCI-H23): < 10%
- inhibition at 10 µM (786–0): 44.2%
- inhibition at 10 µM (SK-MEL-2): < 10%
- inhibition at 10 µM (OVCAR-3): < 10%
- inhibition at 10 µM (UO-31): 17.6%
- inhibition at 10 µM (SK-OV-3): < 10%
- inhibition at 10 µM (HT29): 10.6%
- inhibition at 10 µM (HCC-2998): < 10%
- inhibition at 10 µM (BT-549): 10.8%
- inhibition at 10 µM (OVCAR-8): 11.9%
- inhibition at 10 µM (CCRF-CEM): 15.2%
- inhibition at 10 µM (TK-10): < 10%
